# Experimental data as given in patent US20090136578A1, “Pharmaceutical Composition Comprising Perindopril or Its Salts” (LEK Pharmaceutical d.d., priority 2005, published 2009).
# Tests used:
# Format in all cases: physicochemical
# [1] = Stress stability of ternary mixture perindopril erbumine:Avicel:Syloid 2:10:1, HPLC degradation products; conditions: ternary mixture with Avicel and Syloid 2:10:1
# Protocol: (§1) For the comparative tests, samples of perindopril erbumine with different particle size were mixed with some common pharmaceutically acceptable excipients in binary or ternary mixtures. Pharmaceutical compositions, particularly tablets, with perindopril erbumine having different particle size were prepared as well. Binary and ternary mixtures and tablets were exposed to the stress condition, e.g. 60° C. for 14 days or 40° C./75% relative humidity for 1 month.
# (§2) Samples of perindopril erbumine having large or small particles were mixed with microcrystalline cellulose (Avicel) and micronized silicon dioxide (Syloid) into the ternary mixtures having ratio perindopril erbumine:Avicel:Syloid=2:10:1. Ternary mixtures were exposed to the stress condition of 40° C./75% relative humidity for 1 month.
# [2] = Stress stability of binary mixture perindopril erbumine:anhydrous lactose 1:2, HPLC degradation products; conditions: binary mixture with anhydrous lactose 1:2
# Protocol: as §1, with “month. Degradation products of perindopril were determined using HPLC method as described in European Pharmacopea 5.0 (January 2005, monograph for Perindopril tert-butylamine—pages 2210-2212).” for “month.”
# (§3) Samples of perindopril erbumine having large or small particles were mixed with anhydrous lactose into the binary mixtures having a ratio perindopril erbumine:anhydrous lactose=1:2. Binary mixtures were closed into vials and exposed to the stress condition of 60° C. for 14 days. Degradation products (impurities B and F) of perindopril were determined using HPLC method as described in European Pharmacopea 5.0 (p. 2210-2212).
# [3] = Stress stability of ternary mixture perindopril erbumine:anhydrous lactose:Syloid 2:10:1, HPLC degradation products; conditions: ternary mixture with anhydrous lactose and Syloid 2:10:1
# Protocol: as §1
# as §2, with “anhydrous lactose” for “microcrystalline cellulose (Avicel)”, “erbumine:anhydrous lactose:Syloid=2:10:1.” for “erbumine:Avicel:Syloid=2:10:1.”
# [4] = Stress stability of binary mixture perindopril erbumine:Aerosil 15:1, HPLC degradation products; conditions: binary mixture with Aerosil 15:1
# Protocol: as §1
# Samples of perindopril erbumine having large or small particles were mixed with colloidal anhydrous silicon dioxide (Aerosil) into the binary mixtures having a ratio perindopril erbumine:Aerosil=15:1. Binary mixtures were closed into vials and exposed to the stress condition of 60° C. for 14 days.
# [5] = Stress stability of binary mixture perindopril erbumine:Avicel 1:2, HPLC degradation products; conditions: binary mixture with Avicel 1:2
# Protocol: as §1, with “month. Degradation products of perindopril were determined using HPLC method as described in European Pharmacopea 5.0 (January 2005, monograph for Perindopril tert-butylamine—pages 2210-2212).” for “month.”
# as §3, with “microcrystalline cellulose (Avicel)” for “anhydrous lactose”, “erbumine:Avicel=1:2.” for “erbumine:anhydrous lactose=1:2.”
# [6] = Stress stability of tablets of Example 6, HPLC degradation products
# Protocol: as §1
# Samples of perindopril erbumine having large or small particles were mixed with selected pharmaceutical excipients in stated ratio:
# Mixture was homogenized and pressed into the tablets. The amount of the perindopril erbumine in the tablets was defined by the mass of the tablet. Tablet could contain 2, 4 or 8 mg of perindopril erbumine.
# Tablets were exposed to the stress condition of 60° C. for 14 days and 40° C./75% relative humidity for 1 month.
# [7] = Comparative stress tests of perindopril erbumine of different particle size with excipients; conditions: in comparison to perindopril erbumine having small particles; regardless of excipients or testing conditions
# Protocol: During the development of the stable pharmaceutical composition of perindopril erbumine comparative tests were performed to investigate effects of various pharmaceutically acceptable excipients e.g. fillers, disintegrants and glidants, and different particle size of perindopril erbumine on the stability of perindopril erbumine.
# as §1
SMILES,"impurity B ([1]; 40° C./75% RH, 1 month) [%]","impurity F ([1]; 40° C./75% RH, 1 month) [%]","sum of impurities ([1]; 40° C./75% RH, 1 month) [%]",impurity B ([1]; beginning) [%],impurity F ([1]; beginning) [%],sum of impurities ([1]; beginning) [%],"impurity B ([2]; 60° C., 14 days) [%]","impurity F ([2]; 60° C., 14 days) [%]","sum of impurities ([2]; 60° C., 14 days) [%]",impurity B ([2]; beginning) [%],impurity F ([2]; beginning) [%],sum of impurities ([2]; beginning) [%],"impurity B ([3]; 40° C./75% RH, 1 month) [%]","impurity F ([3]; 40° C./75% RH, 1 month) [%]","sum of impurities ([3]; 40° C./75% RH, 1 month) [%]",impurity B ([3]; beginning) [%],impurity F ([3]; beginning) [%],sum of impurities ([3]; beginning) [%],"impurity B ([4]; 60° C., 14 days) [%]","impurity F ([4]; 60° C., 14 days) [%]",also measured
"CCC[C@H](N[C@@H](C)C(=O)N1[C@H](C(=O)O)C[C@@H]2CCCC[C@@H]21)C(=O)OCC [perindopril erbumine - small particles, perindopril erbumine]",0.14,0.17,0.36,<0.05,<0.05,0.11,<0.05,0.77,0.88,<0.05,<0.05,<0.05,1.24,1.35,2.75,<0.05,<0.05,0.10,<0.05,0.80,"sum of impurities ([4]; 60° C., 14 days): 0.80%; impurity B ([4]; beginning): <0.05%; impurity F ([4]; beginning): <0.05%; sum of impurities ([4]; beginning): <0.05%; impurity B ([5]; 60° C., 14 days): <0.05%; impurity F ([5]; 60° C., 14 days): 0.74%; sum of impurities ([5]; 60° C., 14 days): 0.81%; impurity B ([5]; beginning): <0.05%; impurity F ([5]; beginning): <0.05%; sum of impurities ([5]; beginning): <0.05%; impurity B ([6]; 40° C./75% RH, 1 month): 0.09%; impurity F ([6]; 40° C./75% RH, 1 month): 0.51%; sum of impurities ([6]; 40° C./75% RH, 1 month): 0.65%; impurity B ([6]; 60° C., 14 days): 0.27%; impurity F ([6]; 60° C., 14 days): 0.96%; sum of impurities ([6]; 60° C., 14 days): 1.79%; impurity B ([6]; beginning): <0.05%; impurity F ([6]; beginning): <0.05%; sum of impurities ([6]; beginning): 0.05%"
"CCC[C@H](N[C@@H](C)C(=O)N1[C@H](C(=O)O)C[C@@H]2CCCC[C@@H]21)C(=O)OCC [perindopril erbumine - large particles, perindopril erbumine]",0.05,0.18,0.29,<0.05,<0.05,0.11,<0.05,0.13,0.13,<0.05,<0.05,<0.05,1.09,0.70,1.92,<0.05,<0.05,0.10,<0.05,0.08,"degradation of perindopril erbumine [7]: smaller; sum of impurities ([4]; 60° C., 14 days): 0.08%; impurity B ([4]; beginning): <0.05%; impurity F ([4]; beginning): <0.05%; sum of impurities ([4]; beginning): <0.05%; impurity B ([5]; 60° C., 14 days): <0.05%; impurity F ([5]; 60° C., 14 days): 0.07%; sum of impurities ([5]; 60° C., 14 days): 0.07%; impurity B ([5]; beginning): <0.05%; impurity F ([5]; beginning): <0.05%; sum of impurities ([5]; beginning): <0.05%; impurity B ([6]; 40° C./75% RH, 1 month): 0.13%; impurity F ([6]; 40° C./75% RH, 1 month): 0.28%; sum of impurities ([6]; 40° C./75% RH, 1 month): 0.41%; impurity B ([6]; 60° C., 14 days): 0.56%; impurity F ([6]; 60° C., 14 days): 0.63%; sum of impurities ([6]; 60° C., 14 days): 1.40%; impurity B ([6]; beginning): <0.05%; impurity F ([6]; beginning): 0.07%; sum of impurities ([6]; beginning): 0.07%"
